Assay results from patent publication US20240239788A1, “SMALL MOLECULE INHIBITORS OF KRAS G12D MUTANT” (Merck Sharp & Dohme LLC, priority 2021, published 2024).
Where two headings read alike, the source gives them in different places.

Tests used:
[1] = biological target: KRAS protein containing G12D mutation (Homo sapiens (Human), UniProt P01116, G12D); experiment: SOS-catalyzed nucleotide exchange assay (GNE), TR-FRET; type: biochemical; details: biotinylated KRAS G12D, SOS and GTP, 60-minute incubation
Experimental: Compounds are added to this complex and then after a 60-minute incubation time the mixture is treated with SOS and unlabeled GTP. Small molecule inhibitors stabilize the Bodipy-GDP complex whereas the untreated protein rapidly exchanges Bodipy-GDP for unlabeled GTP resulting in reduced TR-FRET signal.
This solution is referred to as biotinylated KRAS G12D stock solution.

[2] = test system: AsPC-1 cells containing homozygous KRAS-G12D activating mutation; experiment: Cellular phospho-ERK assay (Examples 1a-106); type: cell-based; details: read-out: IC50 (nM) pERK (Cell)
Excerpt: 5% CO? overnight. […] Assay plates were read on a EnVision Multimode Plate Reader (PerkinElmer) and the ratio of p-Erk vs total Erk in each well was used as the final readout.

[3] = biological target: KRAS G12D / Ras binding domain of C-RAF (Homo sapiens (Human), UniProt P01116, G12D); experiment: RAS:RAF-RBD binding assay (cRaf), TR-FRET; details: read-out: IC50 (nM) (cRaf); biotinylated KRAS G12D, GST-C-RAF RBD
Experimental: Compounds are added to KRAS and then after a 30-minute incubation time the RAF-RBD and detection antibodies are added. Small molecule inhibitors that block the interaction of c-RAF-RBD prevent generation of a TR-FRET signal.
Biotinylated KRAS G12D protein is diluted to 20 nM in assay buffer (20 mM HEPES pH 7.5, 150 mM sodium chloride, 10 mM magnesium chloride, and 0.01% Tween20).
Each test compound (10 mM stock in DMSO) is diluted in DMSO to make a 10-point, 3-fold dilution series in a 384-well low dead volume microplate (Labcyte, catalog #LP-0200).
Each well of the assay plate receives 5 μL of Biotinylated KRAS G12D assay solution and is incubated at room temperature for 30 minutes. Each well then receives 5 μL of 100 nM GST-C-RAF RBD protein and a 1:100 dilution of both anti-GST-d2 (Cisbio catalog #61GSTDLA) and Streptavidin-Tb cryptate (Cisbio catalog #610SATLA) in assay buffer and the plate is mixed and briefly centrifuged followed by a 60 minute incubation at room temperature.
The apparent effect as a function of compound concentration is fit to a four-parameter logistic equation.

[4] = AsPC-1 cells, 2 hours, ratio of p-Erk vs total Erk
[5] = Homo sapiens, ASPC1, 2 h, AsPC-1 cells, 2 hours, ratio of p-Erk vs total Erk

KRAS protein containing G12D mutation, sequence (P01116 other isoform, or with tags, fused parts or gaps G12D (already in the parent)): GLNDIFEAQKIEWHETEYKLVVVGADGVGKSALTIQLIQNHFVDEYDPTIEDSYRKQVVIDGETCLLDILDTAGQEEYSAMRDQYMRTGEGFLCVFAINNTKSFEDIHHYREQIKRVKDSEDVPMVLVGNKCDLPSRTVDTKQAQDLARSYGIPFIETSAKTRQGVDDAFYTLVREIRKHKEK
KRAS G12D / Ras binding domain of C-RAF, sequence (P01116 other isoform, or with tags, fused parts or gaps G12D (already in the parent)): as above

SMILES	IC50 [1] [nM]	IC50 [2, 4] [nM]	IC50 [3] [nM]	IC50 [2, 5] [nM]	IC50 ([2]; Homo sapiens, ASPC1, 2 h) [nM]
CN(C)C[C@]1(COc2nc(N3CC4CCC(C3)N4)c3cc(Cl)c(-c4cc(O)cc5ccccc45)c(F)c3n2)CC1(F)F (atropisomer, axis not shown) [Example 11a, 4-(4-(3.8-diazabicyclo[3.2.1]octan-3-yl)-6-chloro-2-(((S)-1-((dimethylamino)methyl)-2,2-difluorocyclopropyl)methoxy)-8-fluoroquinazolin-7-yl)naphthalen-2-ol]	24.1	2080	4240		
CN(C)C[C@]1(COc2nc(N3CC4CCC(C3)N4)c3cc(Cl)c(-c4cc(O)cc5ccccc45)c(F)c3n2)CC1(F)F (atropisomer, axis not shown) [Example 11b, 4-(4-(3.8-diazabicyclo[3.2.1]octan-3-yl)-6-chloro-2-(((S)-1-((dimethylamino)methyl)-2,2-difluorocyclopropyl)methoxy)-8-fluoroquinazolin-7-yl)naphthalen-2-ol]	131	6260	7240		
Nc1nc2c(F)ccc(-c3c(Cl)cc4c(N5CC6CCC(C5)N6)nc(OCC5(CN6CCOCC6)CC5)nc4c3F)c2s1 [Example 54, 7-(4-(3,8-diazabicyclo[3.2.1]octan-3-yl)-6-chloro-8-fluoro-2-((1-(morpholinomethyl)cyclopropyl)methoxy)quinazolin-7-yl)-4-fluorobenzo[d]thiazol-2-amine]	2650			14100	
CN(C)CC1(COc2nc(N3CC4CCC(C3)N4)c3cc(Cl)c(-c4c(Cl)c(F)cc5[nH]ncc45)c(F)c3n2)CC1 [Example 55, 1-(1-(((4-(3,8-diazabicyclo[3.2.1]octan-3-yl)-6-chloro-7-(5-chloro-6-fluoro-1H-indazol-4-yl)-8-fluoroquinazolin-2-yl)oxy)methyl)cyclopropyl)-N,N-dimethylmethanamine]	969			7060	
CN(C)CC1(COc2nc(N3CC4CCC(C3)N4)c3cc(Cl)c(-c4cc(C(F)(F)F)cc5[nH]ncc45)c(F)c3n2)CC1 [Example 56, 1-(1-(((4-(3,8-diazabicyclo[3.2.1]octan-3-yl)-6-chloro-8-fluoro-7-(6-(trifluoromethyl)-1H-indazol-4-yl)quinazolin-2-yl)oxy)methyl)cyclopropyl)-N,N-dimethylmethanamine]	4030			6920	
Nc1nc2c(-c3c(Cl)cc4c(N5CC6CCC(C5)N6)nc(OCC5(CN6CCOCC6)CC5)nc4c3F)cccc2o1 [Example 59, 4-(4-(3,8-diazabicyclo[3.2.1]octan-3-yl)-6-chloro-8-fluoro-2-((1-(morpholinomethyl)cyclopropyl)methoxy)quinazolin-7-yl)benzo[d]oxazol-2-amine]	20.1			2210	
CN(C)CC1(COc2nc(N3C[C@H]4CC[C@@H](C3)N4)c3cc(Cl)c(-c4cccc5cccc(C#N)c45)c(F)c3n2)CC1 [Example 60, 8-(4-((1R,5S)-3,8-diazabicyclo[3.2.1]octan-3-yl)-6-chloro-2-((1-((dimethylamino)methyl)cyclopropyl)methoxy)-8-fluoroquinazolin-7-yl)-1-naphthonitrile]	1590				8760
CN(C)CC1(COc2nc(N3C[C@H]4CC[C@@H](C3)N4)c3cc(Cl)c(-c4c(C(F)(F)F)ccc5[nH]ncc45)c(F)c3n2)CC1 [Example 63, 1-(1-(((4-((1R,5S)-3,8-diazabicyclo [3.2.1]octan-3-yl)-6-chloro-8-fluoro-7-(5-(trifluoromethyl)-1H-indazol-4-yl)quinazolin-2-yl)oxy)methyl)cyclopropyl)-N,N-dimethylmethanamine]	1590			26800	
Cc1cc2[nH]ncc2c(-c2c(F)cc3c(N4C[C@H]5CC[C@@H](C4)N5)nc(OCC4(CN(C)C)CC4(F)F)nc3c2F)c1Cl (stereo partly drawn) [Example 64, 1-(1-(((4-((1R,5S)-3,8-diazabicyclo[3.2.1]octan-3-yl)-7-(5-chloro-6-methyl-1H-indazol-4-yl)-6,8-difluoroquinazolin-2-yl)oxy)methyl)-2,2-difluorocyclopropyl)-N,N-dimethylmethanamine]	146			4380	
